Assay results: patent US20250009819A1, “NOVEL PROBIOTICS AND USE THEREOF” (PBLBIOLAB CO., LTD., priority 2021, published 2025)

Columns and labels:
[1] = tested on: animals with LPS-induced cognitive impairment; assay: Animals with LPS-induced cognitive impairment: cognitive improvement, hippocampus indicators; type: in vivo, C57BL/6 male mice; settings: LPS-treated mice, 1×10^9 CFU/mouse or sulfasalazine 50 mg/kg once a day for 5 days
Experimental: (§1) Hippocampus, colon, and spleen tissues were homogenized by adding 1 ml of RIPA buffer (Gibco) containing protease inhibitor cocktail and centrifuged at 4° C., 13000 rpm for 15 min to obtain supernatant. Indicators of this supernatant were measured using an ELISA kit (Ebioscience).
The Y-shaped maze measurement device is shaped like an alphabetical Y with three arms extending from it, each arm being 25 cm long, 14 cm high, 5 cm wide, and positioned at the same angle. At the end of one arm of the Y-shaped maze, the animal was placed with its head facing out and allowed to freely navigate the arm for 8 minutes. The animal's movements were recorded, and reported as arm entries when the animal entered the arm with its hind paw, and the animal's movement was represented by an alternation, which was defined as one alternation when the animal passed through the three arms in succession. The amount of spontaneous alternation behavior was expressed as a percentage between the actual number of alternations and the maximum possible number of alternations (i.e., the total number of […] minus 2).
The experiment was conducted in a box (40×40×40 cm) made so that the outside could not be seen from the inside. Two objects (A, A′) of the same shape and size were fixedly disposed in a box and the mouse was relocated to start from the center of the box. Then, the number of times the mouse made contact with the two objects was recorded for 10 minutes. After 24 hours, one of the two objects was replaced with a new object (A, B). Then, one original object and one new object were prepared, and the animal's exploration time was measured.
(§2) C57BL/6 male mice (5 weeks old, 19-21 g) were divided (6 mice in each group) and acclimatized to the laboratory for 1 week. To induce intestinal and brain diseases, mice were intraperitoneally administered Escherichia coli-derived LPS (10 μg/kg) once daily for 5 days. […] Experimental animals in the normal group were orally administered with a physiological saline solution, which was used to suspend lactic acid bacteria. The day following the conclusion of sample administration, the experimental animals were sacrificed, and samples from the brain hippocampus, colon, and spleen were collected. In the Hippocampus, inflammatory indicators, such as IFN-γ, TNF-α, and IL-10, were measured using ELISA. In the colon, intestinal length and inflammatory indicators, such as IFN-γ, TNF-α, and IL-10, were measured. In the spleen, Th1 cells and Treg cells were measured by FACS (Fluorescence-Activated Cell Sorting).

[2] = tested on: animals with LPS-induced cognitive impairment; assay: Animals with LPS-induced cognitive impairment: improvement effect in spleen; type: in vivo, C57BL/6 male mice; settings: LPS-treated mice, 1×10^9 CFU/mouse or sulfasalazine 50 mg/kg once a day for 5 days
Experimental: as §1
mRNA was isolated from spleen tissue using the RNA Isolation Kit: RNeasy Mini Kit (QIAGEN), converted to cDNA, and qPCR was performed to measure the expression rates of Tbet, Foxp3, and glyceraldehyde 3-phosphate dehydrogenase (GAPDH). The reaction product was first treated at 95° C. for 30 seconds, followed by 38 cycles of 5 seconds at 95° C. and 30 seconds at 72° C. for analysis.
as §2

[3] = tested on: animals with LPS-induced cognitive impairment; assay: Animals with LPS-induced cognitive impairment: colitis improvement (colon); type: in vivo, C57BL/6 male mice; settings: LPS-treated mice, 1×10^9 CFU/mouse or sulfasalazine 50 mg/kg once a day for 5 days
Experimental: To 100 mg of colon tissue, 200 μl of 10 mM potassium phosphate buffer (pH 7.0) containing 0.5% hexadecyl trimethyl ammonium bromide was added and homogenized. Then, the supernatant was obtained by centrifugation for 10 minutes at 4° C. and 10,000 g. A volume of 50 μl of the supernatant was added to 0.95 mk of reaction solution (containing 1.6 mM tetramethyl benzidine and 0.1 mM H2O2), reacted at 37° C., and absorbance was monitored over time at 650 nm.
as §1, §2

[4] = Antioxidant activity (DPPH, in vitro); type: biochemical; settings: DPPH 0.2 mM; lactic acid bacteria suspension 1×10^8 CFU/ml; 37° C. 20 min
In short: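 Lactic acid bacteria suspension (1×10^8 CFU/ml) or vitamin C (1 g/ml) was mixed with 0.2 mM ethanolic DPPH and incubated 20 min at 37° C. After centrifugation, supernatant absorbance at 517 nm gave the antioxidant activity.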

Neuropeptide Y (NPY) = Neuropeptide Y (NPY) expression in PC12 phaeochromocytoma cells; type: cell-based; settings: LPS 200 ng/ml; lactic acid bacteria 1×10^4 CFU/ml; 24 hr
Experimental: (§3) PC12 cells obtained from the Korean Cell Line Bank were cultured in DMEM medium supplemented with 10% FBS and 1% antibiotics, and dispensed at 1×10^6 cells per well in a 12-well plate. Then, LPS (200 ng/ml) was added to each well along with lactic acid bacteria (1×10^4 CFU/ml) and incubated for 24 hr. The cells and supernatants were collected, sonicated and centrifuged, and the amount of NPY in the supernatant was measured by ELISA kit.

TNF-α = TNF-α expression in LPS-treated macrophages (ELISA); type: cell-based, C57BL/6 mice; settings: macrophages treated with lactic acid bacteria and LPS for 24 hours
In short: (§4)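 Peritoneal macrophages were elicited in male C57BL/6 mice (6 weeks) by i.p. 4% thioglycolate and harvested 96 h later. Cells at 0.5×10^6/well were treated with lactic acid bacteria plus LPS for 24 h. Cytokines in the supernatant were quantified by ELISA.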

IL-10 = IL-10 expression in LPS-treated macrophages (ELISA); type: cell-based, C57BL/6 mice; settings: macrophages treated with lactic acid bacteria and LPS for 24 hours
In short: as §4

BDNF = BDNF expression in SH-SY5Y cells; type: cell-based; settings: LPS 200 ng/ml; lactic acid bacteria 1×10^4 CFU/ml; 24 h
Experimental: as §3, with “SH-SY5Y” for “PC12”, “2×10^6” for “1×10^6”, “h.” for “hr.”, “BDNF” for “NPY”

Clostridium difficile = Clostridium difficile proliferation in gut microbiota (PCR); type: cell-based; settings: human feces culture; lactic acid bacteria 1×10^6 CFU/mL; anaerobic 24 hr
In short: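 Human fecal supernatant, diluted 10,000-fold in GAM, co-cultured anaerobically 24 h with lactic acid bacteria (1×10^6 CFU/mL). C. difficile quantified by PCR on pellet DNA (95 °C 30 s; 42 cycles 95 °C 5 s/72 °C 30 s); supernatant LPS measured by ELISA.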

gut microbiota = assay: LPS production in gut microbiota (ELISA); type: cell-based; settings: human feces culture; lactic acid bacteria 1×10^6 CFU/mL; anaerobic 24 hr
Experimental: Fresh human feces were suspended in anaerobic medium (GAM, Nissui Pharmaceutical Co., Ltd., Japan) and allowed to stand for 10 min. The supernatant was diluted with 10,000-fold anaerobic medium, 0.05 mL of the dilution was transplanted into 5 mL of freshly made anaerobic medium, and lactic acid bacteria (1×10^6 CFU/mL) were implanted and incubated anaerobically for 24 hr.

What does the source list for `O=C(O)c1cc(/N=N/c2ccc(S(=O)(=O)Nc3ccccn3)cc2)ccc1O` [Sulfasalazine, sulfasalazine, reference compound]?
Exoporation (%) (in NOR task) [1]: 72.02%; Spontaneous alteration (%) (in Y-maze task) [1]: 69.21%; IFN-γ/IL-10 ([1]; hippocampus): 0.60; IL-10 ([1]; hippocampus): 45.79 pg/mg; Interferon (IFN)-γ ([1]; hippocampus): 27.35 pg/mg; TNF-α ([1]; hippocampus): 10.98 pg/mg; TNF-α/IL-10 ([1]; hippocampus): 0.24; Tbet/Foxp3 ([2]; spleen qPCR): 1.78; IL-10 ([2]; spleen): 9.78 pg/mg; Interferon (IFN)-γ ([2]; spleen): 13.55 pg/mg; NK cell cytoxicity (%) ([2]; spleen): 7.92%; Phagocytosis (%) ([2]; spleen): 39.59%; TNF-α ([2]; spleen): 4.51 pg/mg; TNF-α/IL-10 ([2]; spleen): 0.13; Colon (cm) [3]: 5.0 cm; IFN-γ/IL-10 [3]: 2.85; IL-10 [3]: 15.91 pg/mg; Interferon (IFN)-γ [3]: 45.4 pg/mg; MPO activity [3]: 4.75 μUnit/mg; TNF-α [3]: 20.1 pg/mg; TNF-α/IL-10 [3]: 1.26

What does the source list for Lactococcus lactis NK208?
Antioxidant activity [4]: − (not or less than 20% (−; <20%)); PC12 cell Induction of NPY expression (Neuropeptide Y (NPY)): + (weakly (+; >20-60%)); Macrophage Inhibition of TNF-α expression (TNF-α): − (not or less than 20% (−; <20%)); Macrophage Induction of IL-10 expression (IL-10): − (not or less than 20% (−; <20%)); SHSY5Y cell Induction of BDNF expression (BDNF): + (weakly (+; >20-60%)); Gut microbiota Inhibition of difficile bacteria proliferation (Clostridium difficile): + (weakly (+; >20-60%)); Gut microbiota Inhibition of LPS production (gut microbiota): + (weakly (+; >20-60%))
